Test results published in paper PMC9364112, “A natural fusion of flavodiiron, rubredoxin, and rubredoxin oxidoreductase domains is a self-sufficient water-forming oxidase of Trichomonas vaginalis” (The Journal of Biological Chemistry, 2022).

Assays:
Test in all cases: LC-MS quantification of bound flavin
Type in all cases: binding
[1] = molecular target: T1, TvFDPF1 (Trichomonas vaginalis, UniProt A2EP06); conditions: co-purified cofactor
T1 construct: gene TVAG_263800; full length, 871 residues, C-terminal His6 (pET30a, E. coli BL21 Star DE3); 272 kDa by gel filtration
T1 sequence (A2EP06 1-871): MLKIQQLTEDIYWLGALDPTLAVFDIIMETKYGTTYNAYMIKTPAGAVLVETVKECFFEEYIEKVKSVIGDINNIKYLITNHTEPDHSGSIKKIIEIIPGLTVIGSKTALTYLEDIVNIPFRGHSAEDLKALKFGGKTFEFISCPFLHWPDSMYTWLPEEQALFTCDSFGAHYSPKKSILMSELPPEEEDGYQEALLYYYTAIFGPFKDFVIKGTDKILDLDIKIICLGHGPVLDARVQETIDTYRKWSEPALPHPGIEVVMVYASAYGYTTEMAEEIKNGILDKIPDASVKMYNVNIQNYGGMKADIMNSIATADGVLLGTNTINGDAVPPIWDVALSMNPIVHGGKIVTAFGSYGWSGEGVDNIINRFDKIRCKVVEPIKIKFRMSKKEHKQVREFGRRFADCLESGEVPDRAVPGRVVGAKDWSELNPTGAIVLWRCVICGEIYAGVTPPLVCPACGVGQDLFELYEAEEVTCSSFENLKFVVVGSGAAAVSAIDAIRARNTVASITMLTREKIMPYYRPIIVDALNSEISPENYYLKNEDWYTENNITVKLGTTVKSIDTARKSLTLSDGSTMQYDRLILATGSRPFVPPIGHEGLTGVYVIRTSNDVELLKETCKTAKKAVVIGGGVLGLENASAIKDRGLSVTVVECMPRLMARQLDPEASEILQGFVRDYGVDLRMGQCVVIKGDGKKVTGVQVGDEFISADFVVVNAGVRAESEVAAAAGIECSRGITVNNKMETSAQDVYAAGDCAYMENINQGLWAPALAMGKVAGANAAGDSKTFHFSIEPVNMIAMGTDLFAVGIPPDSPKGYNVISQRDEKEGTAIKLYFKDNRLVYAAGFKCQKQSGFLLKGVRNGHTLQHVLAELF
Text: LC-MS quantification of bound flavin on TvFDPF1

[2] = molecular target: T2, TvFDPF3 (holoTvFDPF3) (Trichomonas vaginalis, UniProt A2E972); conditions: co-purified cofactor, NROR domain
T2 construct: gene TVAG_121610; full length, 871 residues, C-terminal His6 (pET30a, E. coli BL21 Star DE3), ~100 kDa on SDS-PAGE; FDP-core head-to-tail dimer; holo preparation with full FAD/FMN
T2 sequence (A2E972 1-871): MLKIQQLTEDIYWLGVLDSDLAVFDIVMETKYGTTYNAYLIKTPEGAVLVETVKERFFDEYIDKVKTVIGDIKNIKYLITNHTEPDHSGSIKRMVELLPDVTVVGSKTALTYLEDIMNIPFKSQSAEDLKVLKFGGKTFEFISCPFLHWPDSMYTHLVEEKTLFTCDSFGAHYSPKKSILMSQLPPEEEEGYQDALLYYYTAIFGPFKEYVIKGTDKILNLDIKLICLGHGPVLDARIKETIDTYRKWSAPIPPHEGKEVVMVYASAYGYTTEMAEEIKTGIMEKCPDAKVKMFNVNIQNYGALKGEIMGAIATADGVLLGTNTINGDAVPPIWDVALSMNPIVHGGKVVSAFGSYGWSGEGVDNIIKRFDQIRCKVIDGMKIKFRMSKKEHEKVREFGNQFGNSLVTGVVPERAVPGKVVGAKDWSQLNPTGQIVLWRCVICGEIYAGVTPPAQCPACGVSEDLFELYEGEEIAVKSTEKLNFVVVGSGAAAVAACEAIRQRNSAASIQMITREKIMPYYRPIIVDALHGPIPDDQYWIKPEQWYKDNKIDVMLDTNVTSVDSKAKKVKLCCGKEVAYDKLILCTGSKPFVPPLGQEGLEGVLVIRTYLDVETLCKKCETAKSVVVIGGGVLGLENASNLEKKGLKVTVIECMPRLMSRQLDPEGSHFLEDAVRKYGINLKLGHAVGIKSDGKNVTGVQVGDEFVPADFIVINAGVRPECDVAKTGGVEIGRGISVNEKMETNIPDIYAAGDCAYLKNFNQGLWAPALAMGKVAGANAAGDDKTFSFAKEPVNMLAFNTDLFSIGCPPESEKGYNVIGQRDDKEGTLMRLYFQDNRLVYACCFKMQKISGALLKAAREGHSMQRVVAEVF
Text: LC-MS quantification of bound flavin on TvFDPF3 (holoTvFDPF3)

[3] = molecular target: T3, TvFDPF2 (Trichomonas vaginalis, UniProt A2EVX8); conditions: co-purified cofactor, poorly occupied
T3 construct: gene TVAG_049830; full length, 871 residues, C-terminal His6 (pET30a, E. coli BL21 Star DE3); aggregation-prone; poor FAD and FMN occupancy
T3 sequence (A2EVX8 1-871): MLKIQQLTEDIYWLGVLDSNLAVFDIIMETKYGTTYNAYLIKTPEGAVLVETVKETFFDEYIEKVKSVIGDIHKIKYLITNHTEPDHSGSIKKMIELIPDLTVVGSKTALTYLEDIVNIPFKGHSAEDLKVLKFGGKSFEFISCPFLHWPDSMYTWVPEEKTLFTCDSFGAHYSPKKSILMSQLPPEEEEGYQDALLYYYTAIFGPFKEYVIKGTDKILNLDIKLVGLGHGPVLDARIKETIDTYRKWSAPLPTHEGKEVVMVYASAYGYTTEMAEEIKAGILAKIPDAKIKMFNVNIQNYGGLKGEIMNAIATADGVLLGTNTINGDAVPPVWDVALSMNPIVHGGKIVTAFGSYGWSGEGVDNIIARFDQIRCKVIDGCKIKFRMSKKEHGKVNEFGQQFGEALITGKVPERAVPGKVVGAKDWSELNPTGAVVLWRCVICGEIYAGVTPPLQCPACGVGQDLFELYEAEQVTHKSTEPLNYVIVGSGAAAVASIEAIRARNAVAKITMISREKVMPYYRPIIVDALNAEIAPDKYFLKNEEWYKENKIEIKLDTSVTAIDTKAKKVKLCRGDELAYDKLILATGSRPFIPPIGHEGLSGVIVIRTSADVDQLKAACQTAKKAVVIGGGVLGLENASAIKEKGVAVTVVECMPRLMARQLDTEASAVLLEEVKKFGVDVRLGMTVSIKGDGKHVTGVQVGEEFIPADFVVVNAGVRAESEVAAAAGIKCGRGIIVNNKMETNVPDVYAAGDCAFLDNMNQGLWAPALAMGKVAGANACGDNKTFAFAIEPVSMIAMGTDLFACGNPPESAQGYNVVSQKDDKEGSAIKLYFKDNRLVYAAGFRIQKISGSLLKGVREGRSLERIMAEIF
Text: LC-MS quantification of bound flavin on TvFDPF2

With `Cc1cc2nc3c(=O)[nH]c(=O)nc-3n(C[C@H](O)[C@H](O)[C@H](O)COP(=O)(O)OP(=O)(O)OC[C@H]3O[C@@H](n4cnc5c(N)ncnc54)[C@H](O)[C@@H]3O)c2cc1C` [FAD] the “FAD per protein monomer” value [1] was 1.02 ± 0.05 mol per mol monomer, the “FAD per protein monomer” value [2] was 0.94 ± 0.09 mol per mol monomer and the “FAD per protein monomer” value [3] was 0.32 ± 0.05 mol per mol monomer.
